Measured values as given in patent US20170290820A1, “METHODS AND COMPOSITIONS FOR TREATING BETA-THALASSEMIA AND SICKLE CELL DISEASE” (Academia Sinica, priority 2013, published 2017).
Values joined by “and” are separate entries in the source; they are usually repeats but may differ in a detail not shown here. Equal entries are not always repeated. Structures can show the parent of a compound that is named as a salt.

Experiments:
ε globin = test: absolute quantitative RT-PCR, proportion of ε globin mRNA; format: cell-based; conditions: primary human erythroid cells, at IC50, 3 days; mock 0.0%
Procedure: (§1) After 3 days of drug-treatment, the total RNA was extracted by RNA Spin mini kit (Ge-Healthcare) and reverse-transcription was performed by using superscript II (Invitrogen) followed the manufactors instruction. Quantitative PCR was performed on LightCycler with using STBR green master mix followed the manufactors instruction (Roche). The absolute quantitative RT-PCR was calculated by the standard curve with supplying a known copy number of plasmids. The relative quantitative RT-PCR was normalized to the expression levels of the β-actin and compared to the mock control.
(§2) To evaluate the specificity of S51021, SS-2394, HU, and NaB in mediating globin genes activation, the amounts of individual P3-liked globin mRNAs were measured by absolute quantitative RT-PCR.
(§3) The primary human erythroid cells were treated with HU (145.9 μM), NaB (221.6 μM), S51021 (21.8 μM) or SS2394 (2.3 μM) for 3 days, and the expression levels of each globin mRNA were estimated by absolute quantitative RT-PCR analysis. The proportions of individual 3-like globin chains among the total 3-like globin mRNA are shown. Data are presented as the mean±SEM, N=3.

[1] = solubility in DMSO and H2O; format: physicochemical; conditions: for water-solubility (in words): comparison
β globin = test: absolute quantitative RT-PCR, proportion of β globin mRNA; format: cell-based; conditions: primary human erythroid cells, at IC50, 3 days; mock 88.8%; listed as SS-2394, hydrochloride
Procedure: as §1, §2, §3

[2] = tested on: primary human erythroid cells; test: AlamarBlue cell viability / proliferation assay; conditions: Table 1a; concentration reducing proliferation rate of primary human erythroid cells by 50%, 3 days
[3] = stability observed during biological evaluation; format: physicochemical; conditions: deaminated or converted into C6-hydroxy derivative
Excerpt: To optimize the biological activity and reduce the cytotoxicity of SS-2394 by structural modification, the core structure of naphthalimide (I) was modified by alternating the carbonyl function of benzo[de]isoquinoline-1,3(2H)-dione; reducing the carbonyl function to hydroxyl derivatives (II), which can be further converted into dehydroxylated derivatives III and IV (Scheme 1). During biological evaluation of SS-2394, it was observed that the C6-amino function in SS-2394 was unstable and can be deaminated or converted into the corresponding C6-hydroxy derivatives. Therefore, various substituent R to the C6 of benzo[de]isoquinolin ring were introduced. The substituent R can be H, NH2, NHCOCH3, NHR′, NR′2; wherein R′ can be a C1 to C5 alkyl group. The new compounds bear a N,N-dimethylaminoethyl hydrophilic side chain, which can form acid salts with various inorganic acids or organic acids. Thus, the compounds are water soluble compounds and are suitable for biological application.

δ globin = test: absolute quantitative RT-PCR, proportion of δ globin mRNA; format: cell-based; conditions: primary human erythroid cells, at IC50, 3 days; mock 3.3%
Procedure: as §1, §2, §3

γ globin gene = γ globin gene induction by relative quantitative RT-PCR; format: cell-based, human
Procedure: as §1
To search for new agents, which are capable of inducing the expression of γ globin, a series of naphthalimide derivatives with various substituent(s) on the naphthalene ring and the heterocyclic N-atom (A1-A14, B1-B4, C1-C5, D1, and E1-E3, FIG. 2) were synthesized. These derivatives were subjected to evaluating the γ globin induction abilities in differentiated peripheral blood mononuclear cells (PBMCs). The PBMCs isolated from the peripheral blood of donors were expanded and differentiated for a total of 14 days in a two-phase liquid culture. The resulted primary erythoid cells were then treated with different dosages of naphthalimide derivatives individually for another 3 days. The expression levels of the endogenous γ globin gene were estimated by relative quantitative RT-PCR and the proliferation rates of these cells were examined by AlamarBlue cell viability assay. […]; 2-4.5-folds induction of the γ globin gene expression in the compounds-treated cells (FIG. 3).

- water-solubility (in words) ([1]; hydrochloride): greatly improved water-solubility
- solubility ([1]; water, H2O, read-out: solubility H2O): > 100 mM
- stability of the C6-amino function [3]: unstable
- γ globin induction (IC50) (γ globin gene; Table 3, γ globin mRNA induction fold at the compound's IC50, 3 days, hydrochloride): 4.0 fold
- EC (μM) induction of HU IC50 (2.3 fold) (γ globin gene; concentration inducing γ globin gene expression 2.3-fold, primary human erythroid cells): 0.8 µM
SMILES: CN(C)CCN1C(=O)c2cccc3c(N)ccc(c23)C1=O [Compound E2, N-(2-dimethylamino-ethyl)-4-amino-1,8-naphthalimide hydrochloride]
- ε globin proportion of total β-like globin mRNA (ε globin): 0.5 ± 0.1%
- water-solubility (in words) ([1]; listed as SS-2394, hydrochloride): higher water-solubility than that of the parental compound S51021
- β globin proportion of total β-like globin mRNA (β globin): 82.3% and 82.3 ± 1.1%
- IC50 [2]: 2.3 µM
- δ globin proportion of total β-like globin mRNA (δ globin): 5.5 ± 0.4%
